Results taken from patent US20230416205A1, “COMPOUNDS, COMPOSITIONS, AND METHODS” (Denali Therapeutics Inc, priority 2020, published 2023).
Read-outs that look alike come from different tables or passages of the source.

System: NLRP3
Experiment: IL-1β secretion assay in PMA-differentiated, LPS/nigericin-stimulated THP-1 cells (384-well, ELISA read-out)
Type: cell-based, human
Method in brief: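 THP-1 cells differentiated with PMA (5 ng/mL, 40 h), primed in serum-free medium with 25 ng/mL LPS for 2 h, treated with compounds 1 h (0.5% DMSO), then stimulated with nigericin for 2 h at 37 °C. Supernatant IL-1β measured by ELISA; responses normalized to LPS+5 μM nigericin and LPS-only controls.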

[1] = Homo sapiens, THP-1, Table 4, IL-1β secretion, LPS/nigericin-stimulated THP-1 cells, read-out: IC50
[2] = Homo sapiens, THP-1, IL-1β secretion, PMA-differentiated THP-1 cells, LPS then nigericin stimulation, ELISA read at 450 nm, read-out: Activity
[3] = IL-1β secretion, PMA-differentiated THP-1 cells, LPS then nigericin stimulation, ELISA read at 450 nm, read-out: Activity
[4] = Table 4, IL-1β secretion, LPS/nigericin-stimulated THP-1 cells, read-out: IC50

| SMILES | IC50 [1] [µM] | IC50 [2] [µM] | IC50 [3] [µM] | IC50 [4] [µM] |
| --- | --- | --- | --- | --- |
| N#Cc1ccc(NC(=O)CN2CC3(CC3)c3cc(Br)ccc3C2=O)cn1 [Example 414, 2-(6-bromo-1-oxospiro[3H-isoquinoline-4,1′-cyclopropane]-2-yl)-N-(6-cyanopyridin-3-yl)acetamide] | 1.26 |  |  |  |
| O=C(CN1CC2(CC2)c2cc(Br)ccc2C1=O)Nc1nccc2cccnc12 [Example 349, 2-(6-bromo-1-oxospiro[3H-isoquinoline-4,1′-cyclopropane]-2-yl)-N-(1,7-naphthyridin-8-yl)acetamide] | 4.76 |  |  |  |
| O=C(CN1CC2(CC2)c2cc(Br)ccc2C1=O)NC1CC(C(F)F)C1 (stereo not shown) [Example 111, 2-(6-bromo-1-oxospiro[3H-isoquinoline-4,1′-cyclopropane]-2-yl)-N-[3-(difluoromethyl)cyclobutyl]acetamide] | 2.42 | < 10 |  |  |
| N#Cc1cnc(NC(=O)CN2CC3(CC3)c3cc(Br)ccc3C2=O)c(F)c1 [Example 7] | 0.35 | < 10 |  |  |
| O=C(CN1C[C@]2(C[C@H]2F)c2cc(C3(F)CC3)ccc2C1=O)Nc1ncc(F)cn1 [Example 249] | 0.015 | < 10 |  |  |
| O=C(CN1CC2(CC2)c2cc(Br)ccc2C1=O)NCCC(F)(F)F [Example 133, 2-(6-bromo-1-oxospiro[3H-isoquinoline-4,1′-cyclopropane]-2-yl)-N-(3,3,3-trifluoropropyl)acetamide] | 9.24 | < 10 |  |  |
| O=C(CN1CC2(CC2)c2nc(C3CC3)ccc2C1=O)Nc1ncc(F)cn1 [Example 311, 2-(2-cyclopropyl-5-oxospiro[7H-1,6-naphthyridine-8,1′-cyclopropane]-6-yl)-N-(5-fluoropyrimidin-2-yl)acetamide] | 1.41 |  |  |  |
| O=C(CN1CC2(CC2)c2cc(Cl)ccc2C1=O)Nc1ncc(F)cn1 [Example 94, 2-(6-chloro-1-oxospiro[3H-isoquinoline-4,1′-cyclopropane]-2-yl)-N-(5-fluoropyrimidin-2-yl)acetamide] | 0.369 | < 10 |  |  |
| N#Cc1cnc(NC(=O)CN2CC3(CC3)c3cc(C(F)(F)F)ccc3C2=O)c(F)c1 [Example 85, N-(5-cyano-3-fluoropyridin-2-yl)-2-[1-oxo-6-(trifluoromethyl)spiro[3H-isoquinoline-4,1′-cyclopropane]-2-yl]acetamide] | 0.992 | < 10 |  |  |
| CC(F)(F)c1ccc2c(c1)C1(CC1)CN(CC(=O)Nc1ncc(F)cn1)C2=O [Example 101, 2-[6-(1,1-difluoroethyl)-1-oxospiro[3H-isoquinoline-4,1′-cyclopropane]-2-yl]-N-(5-fluoropyrimidin-2-yl)acetamide] | 0.672 | < 10 |  |  |
| O=C(CN1CC(C(F)(F)F)c2cc(Br)ccc2C1=O)Nc1ncc(F)cn1 (single isomer, unassigned) [Example 300, 2-[6-bromo-1-oxo-4-(trifluoromethyl)-3,4-dihydroisoquinolin-2-yl]-N-(5-fluoropyrimidin-2-yl)acetamide] |  |  | < 10 | 3.43 |
| O=C(CN1CC(C(F)F)c2cc(Br)ccc2C1=O)Nc1ncc(F)cn1 (stereo not shown) [Example 95, 2-[6-bromo-4-(difluoromethyl)-1-oxo-3,4-dihydroisoquinolin-2-yl]-N-(5-fluoropyrimidin-2-yl)acetamide] | 0.32 | < 10 |  |  |
| COc1ccc2nc(NC(=O)CN3CC4(CC4)c4cc(Br)ccc4C3=O)nn2c1 [Example 262, 2-(6-bromo-1-oxospiro[3H-isoquinoline-4,1′-cyclopropane]-2-yl)-N-(6-methoxy-[1,2,4]triazolo[1,5-a]pyridin-2-yl)acetamide] | 0.253 | < 10 |  |  |
| CC1(O)CC(NC(=O)CN2C[C@@]3(C[C@@H]3F)c3cc(C(F)(F)F)ccc3C2=O)C1 (single isomer, unassigned) [Example 327, N-(3-cis-hydroxy-3-methylcyclobutyl)-2-[(2′s,4r)-2′-fluoro-1-oxo-6-(trifluoromethyl)spiro[3H-isoquinoline-4,1′-cyclopropane]-2-yl]acetamide] |  |  |  | > 1 |
| O=C(CN1CC2(CC2)c2cc(Br)ccc2C1=O)Nc1ccc2c(c1)CCO2 [Example 135, 2-(6-bromo-1-oxospiro[3H-isoquinoline-4,1′-cyclopropane]-2-yl)-N-(2,3-dihydro-1-benzofuran-5-yl)acetamide] | 1.22 | < 10 |  |  |
| O=C(CN1C[C@]2(C[C@H]2F)c2cc(C3CC3)ccc2C1=O)Nc1ncc(F)cn1 [Example 231] | 0.05 | < 10 |  |  |
| O=C(CN1CC2(CC2)c2cc(Br)ccc2C1=O)Nc1nc2ccc(C(F)(F)F)cc2o1 [Example 361, 2-(6-bromo-1-oxospiro[3H-isoquinoline-4,1′-cyclopropane]-2-yl)-N-[6-(trifluoromethyl)-1,3-benzoxazol-2-yl]acetamide] | 0.849 |  |  |  |

| SMILES | IC50 [1] [µM] | IC50 [2] [µM] | IC50 [3] [µM] | IC50 [4] [µM] |
| --- | --- | --- | --- | --- |
| O=C(CN1CC2(CC2)c2cc([C@@]3(F)C[C@H]3F)ccc2C1=O)Nc1ncc(F)cn1 (single isomer, unassigned) [Example 254, 2-[6-[(1r,2s)-1,2-difluorocyclopropyl]-1-oxospiro[3H-isoquinoline-4,1′-cyclopropane]-2-yl]-N-(5-fluoropyrimidin-2-yl)acetamide] |  |  | < 10 | 0.434 |
| CC1CN(CC(=O)NC2CC(C)(O)C2)C(=O)c2ccc(Br)cc21 (stereo not drawn) [Example 69, 2-(6-bromo-4-methyl-1-oxo-3,4-dihydroisoquinolin-2-yl)-N-(cis-3-hydroxy-3-methyl-cyclobutyl)acetamide] | 0.643 | < 10 |  |  |
| CCN1CCC12CC(NC(=O)CN1CC3(CC3)c3cc(Br)ccc3C1=O)C2 (stereo not shown) [Example 393, 2-(6-bromo-1-oxospiro[3H-isoquinoline-4,1′-cyclopropane]-2-yl)-N-(1-ethyl-1-azaspiro[3.3]heptan-6-yl)acetamide] | 7.89 |  |  |  |
| O=C(CN1CC2(CC2(F)F)c2cc(Br)ccc2C1=O)Nc1ncc(F)cn1 (single isomer, unassigned) [Example 290, 2-[6-bromo-1′,1′-difluoro-1-oxospiro[3H-isoquinoline-4,2′-cyclopropane]-2-yl]-N-(5-fluoropyrimidin-2-yl)acetamide] |  | < 10 |  | 3.73 |
| CC1(C)CN(CC(=O)Nc2ncc(F)cn2)C(=O)c2ccc(Br)cc21 [Example 178, 2-(6-bromo-4,4-dimethyl-1-oxo-3H-isoquinolin-2-yl)-N-(5-fluoropyrimidin-2-yl)acetamide] | 1.05 | < 10 |  |  |
| O=C(CN1CC2(CC2)c2cc(Br)ccc2C1=O)NC1CCN(c2ccccn2)CC1 [Example 379, 2-(6-bromo-1-oxospiro[3H-isoquinoline-4,1′-cyclopropane]-2-yl)-N-(1-pyridin-2-ylpiperidin-4-yl)acetamide] | 8.92 |  |  |  |
| Cc1nc(NC(=O)CN2CC3(CC3)c3cc(Br)ccc3C2=O)nn1-c1ccccc1 [Example 412, 2-(6-bromo-1-oxospiro[3H-isoquinoline-4,1′-cyclopropane]-2-yl)-N-(5-methyl-1-phenyl-1,2,4-triazol-3-yl)acetamide] | 3.17 |  |  |  |
| O=C(CN1CC2(CC2)c2cc(Br)ccc2C1=O)Nc1nc2n(n1)CCCC2 [Example 373, 2-(6-bromo-1-oxospiro[3H-isoquinoline-4,1′-cyclopropane]-2-yl)-N-(5,6,7,8-tetrahydro-[1,2,4]triazolo[1,5-a]pyridin-2-yl)acetamide] | 1.59 |  |  |  |
| O=C(CN1CC2(CC2)c2cc(Br)ccc2C1=O)Nc1nc2ccncc2o1 [Example 212, 2-(6-bromo-1-oxo-spiro[3H-isoquinoline-4,1′-cyclopropane]-2-yl)-N-oxazolo[5,4-c]pyridin-2-yl-acetamide] | 0.589 | < 10 |  |  |
| CC1CC(NC(=O)CN2CC3(CC3)c3cc(Br)ccc3C2=O)C1 (stereo not shown) [Example 52, 2-(6-bromo-1-oxo-spiro[3H-isoquinoline-4,1′-cyclopropane]-2-yl)-N-(3-methylcyclobutyl)acetamide] | 2.08 | < 10 |  |  |
| CS(=O)(=O)c1ccc(NC(=O)CN2CC3(CC3)c3cc(Br)ccc3C2=O)c(Cl)c1 [Example 183, 2-(6-bromo-1-oxospiro[3H-isoquinoline-4,1′-cyclopropane]-2-yl)-N-(2-chloro-4-methylsulfonylphenyl)acetamide] | 8.08 | < 10 |  |  |
| O=C(CN1CC2(CC2)c2cc(Br)ccc2C1=O)Nc1ncc(OC(F)F)cn1 [Example 270, 2-(6-bromo-1-oxospiro[3H-isoquinoline-4,1′-cyclopropane]-2-yl)-N-[5-(difluoromethoxy)pyrimidin-2-yl]acetamide] | 0.286 | < 10 |  |  |
| O=C(CN1C[C@@]2(C[C@@H]2F)c2cc(C(F)(F)F)ccc2C1=O)Nc1ncc(F)cn1 (single isomer, unassigned) [Example 235, 2-[(2′s,4r)-2′-fluoro-1-oxo-6-(trifluoromethyl)spiro[3H-isoquinoline-4,1′-cyclopropane]-2-yl]-N-(5-fluoropyrimidin-2-yl)acetamide] |  |  | < 10 | 0.85 |
| O=C(CN1CC2(CC2)c2cc(Br)ccc2C1=O)Nc1cc2cccnc2cn1 [Example 176, 2-(6-bromo-1-oxospiro[3H-isoquinoline-4,1′-cyclopropane]-2-yl)-N-(1,7-naphthyridin-6-yl)acetamide] | 2.95 | < 10 |  |  |
| O=C(CN1CC2(CC2)c2cc(Br)ccc2C1=O)Nc1ncc2c(n1)CCOC2 [Example 331, 2-(6-bromo-1-oxospiro[3H-isoquinoline-4,1′-cyclopropane]-2-yl)-N-(7,8-dihydro-5H-pyrano[4,3-d]pyrimidin-2-yl)acetamide] | 0.97 |  |  |  |
| Cn1ccc(N2CCC(NC(=O)CN3CC4(CC4)c4cc(Br)ccc4C3=O)C2)n1 (stereo not shown) [Example 415, 2-(6-bromo-1-oxospiro[3H-isoquinoline-4,1′-cyclopropane]-2-yl)-N-[1-(1-methylpyrazol-3-yl)pyrrolidin-3-yl]acetamide] | 21 |  |  |  |
